Measured values reported in ChEMBL document CHEMBL6096702, “Discovery of a Novel p38α-MK2 Complex Inhibitor as a Potential Choice for Autoimmune Diseases” (J Med Chem, 2025).

How the values were obtained:
[1] = Inhibition of N-terminal GST-tagged wildtype human P38alpha (4 to 152 residues) extracted from Escherichia coli/GST-tagged MK2 (unknown origin) assessed as reduction in HSP27 phosphorylation incubated for 2 hrs in presence of ATP and HSP27-FITC peptide by fluorescence polarization based IMAP assay
[2] = Selectivity ratio of IC50 for inhibition of N-terminal GST-tagged wildtype human P38alpha (4 to 152 residues) extracted from Escherichia coli/GST-tagged PRAK (unknown origin) to IC50 for inhibition of N-terminal GST-tagged wildtype human P38alpha (4 to 152 residues) extracted from Escherichia coli/GST-tagged MK2 (unknown origin)
[3] = Inhibition of N-terminal GST-tagged wildtype human P38alpha (4 to 152 residues) extracted from Escherichia coli/GST-tagged PRAK (unknown origin) assessed as reduction in HSP27 phosphorylation incubated for 2 hrs in presence of ATP and HSP27-FITC peptide by fluorescence polarization based IMAP assay
[4] = Volume of distribution at steady state in male Sprague-Dawley rat at 1 mg/kg, iv measured after 24 hrs by LC-MS/MS analysis; format: ADME, organism-based; conditions: in vivo, read-out: Vdss
[5] = AUClast in male Sprague-Dawley rat at 1 mg/kg, iv measured after 24 hrs by LC-MS/MS analysis; format: ADME, organism-based; conditions: in vivo
[6] = Cmax in male Sprague-Dawley rat at 2 mg/kg, po measured after 24 hrs by LC-MS/MS analysis; format: ADME, organism-based; conditions: in vivo
[7] = Oral bioavailability in male Sprague-Dawley rat at 2 mg/kg measured after 24 hrs by LC-MS/MS analysis; format: ADME, organism-based; conditions: in vivo
[8] = MRT in male Sprague-Dawley rat at 1 mg/kg, iv measured after 24 hrs by LC-MS/MS analysis; format: ADME, organism-based; conditions: in vivo
[9] = Half-life in male Sprague-Dawley rat at 1 mg/kg, iv measured after 24 hrs by LC-MS/MS analysis; format: ADME, organism-based; conditions: in vivo
[10] = Clearance in male Sprague-Dawley rat at 1 mg/kg, iv measured after 24 hrs by LC-MS/MS analysis; format: ADME, organism-based; conditions: in vivo
[11] = AUClast in male Sprague-Dawley rat at 2 mg/kg, po measured after 24 hrs by LC-MS/MS analysis; format: ADME, organism-based; conditions: in vivo

SMILES	IC50 [1] [nM]	also measured
Cc1cnc(-c2ccnc(C(C)(C)O)n2)cc1-n1c(C)cc(OCc2ncc(F)cc2F)c(C)c1=O	88	
Cc1cc(OCc2ncc(F)cc2F)c(Cl)c(=O)n1C1=CCCN(c2ccnc(C(C)(C)O)n2)C1	> 10000	
Cc1nn(-c2ccnc(C(C)(C)O)n2)cc1-n1c(C)cc(OCc2ncc(F)cc2F)c(Cl)c1=O	1300	
Cc1cnc(-c2ccnc(C(C)(C)O)n2)c(F)c1-n1c(C)cc(O[C@@H](C)c2ncc(F)cc2F)c(C(F)F)c1=O	112	
Cc1cnc(-c2ccnc(C(C)(C)O)n2)cc1-c1c(F)cc(OCc2ncc(F)cc2F)c(Cl)c1C	> 10000	
Cc1cnc(-c2cccc(C(C)(C)O)c2C)c(F)c1-n1c(C)cc(OCc2ncc(F)cc2F)c(Cl)c1=O	68	
Cc1cnc(-c2ccnc(C(C)(C)O)n2)cc1-n1c(C)cc(Oc2ncc(F)cc2F)c(Cl)c1=O	> 10000	
Cc1cnc(-c2ccnc(C(C)(C)O)n2)c(F)c1-n1c(C)cc(O[C@@H](C)c2ncc(F)cc2F)c(C=O)c1=O	143	
Cc1cnc(-c2ccnc(C(C)(C)O)n2)cc1-n1c(C)cc(COc2ncc(F)cc2F)c(Cl)c1=O	1540	
C=C(C)c1c(O[C@@H](C)c2ncc(F)cc2F)cc(C)n(-c2c(C)cnc(-c3ccnc(C(C)(C)O)n3)c2F)c1=O	> 1000	
Cc1ccc(-c2ccnc(C(C)(C)O)n2)cc1-n1c(C)cc(OCc2ncc(F)cc2F)c(Cl)c1=O	3.6	Ratio IC50 [2]: 805; IC50 [3]: 2900 nM
Cc1cnc(-c2ccnc(C(C)(C)O)n2)c(F)c1-n1c(C)cc(O[C@@H](C)c2ncc(F)cc2F)c(C2CC2)c1=O	32	

Second part, led by results:

IC50 [1] [nM]	SMILES	also measured
61	Cc1cnc(-c2cc(C(C)(C)O)ccc2F)c(F)c1-n1c(C)cc(O[C@@H](C)c2ncc(F)cc2F)c(Cl)c1=O	
26	COc1c(O[C@@H](C)c2ncc(F)cc2F)cc(C)n(-c2c(C)cnc(-c3ccnc(C(C)(C)O)n3)c2F)c1=O	
1.6	Cc1cnc(-c2cccc(C(C)(C)O)c2F)c(F)c1-n1c(C)cc(O[C@@H](C)c2ncc(F)cc2F)c(C)c1=O	Ratio IC50 [2]: 246; IC50 [3]: 394 nM
1.9	Cc1cnc(-c2cccc(C(C)(C)O)c2)c(F)c1-n1c(C)cc(O[C@@H](C)c2ncc(F)cc2F)c(Cl)c1=O	Vd [4]: 0.9 L/kg; AUC(0-t) at 24 h [5]: 3230 ng·h/mL; Cmax [6]: 1030 ng/mL; bioavailability [7]: 125%; MRT [8]: 3 h; Ratio IC50 [2]: 1990; half-life [9]: 2.2 h; clearance [10]: 5 mL/min/kg; IC50 [3]: 3780 nM; AUC(0-t) at 24 h [11]: 8050 ng·h/mL
19	Cc1cnc(-c2cc(C(C)(C)O)ccc2Cl)c(F)c1-n1c(C)cc(OCc2ncc(F)cc2F)c(Cl)c1=O	
1.6	Cc1cnc(-c2cccc(C(C)(C)O)c2F)cc1-n1c(C)cc(O[C@@H](C)c2ncc(F)cc2F)c(Cl)c1=O	Ratio IC50 [2]: 315; IC50 [3]: 504 nM
15.5	Cc1cnc(-c2cccc(C(C)(C)O)c2F)cc1-n1c(C)cc(O[C@@H](C)c2ncc(F)cc2F)c(C)c1=O	
12.8	Cc1cnc(-c2cccc(C(C)(C)O)c2F)c(C)c1-n1c(C)cc(O[C@@H](C)c2ncc(F)cc2F)c(Cl)c1=O	Ratio IC50 [2]: 109; IC50 [3]: 1400 nM
0.7	Cc1cnc(-c2cccc(C(C)(C)O)c2F)c(F)c1-n1c(C)cc(O[C@@H](C)c2ncc(F)cc2F)c(Cl)c1=O	Ratio IC50 [2]: 33; IC50 [3]: 23 nM
